These cell lines were tested with CC1(C)CNc2cc(NC(=O)c3cccnc3NCc3ccncc3)ccc21 [Motesanib] + COc1cccc2cc(-c3nc([C@H]4CC[C@H](C(=O)O)CC4)n4ncnc(N)c34)[nH]c12 [OSI-027] (partner 0.5 µM) (assay: relative viability (nuclei count vs DMSO), 5 days (fraction); higher = more cells survive). Conditions: first compound 0.01 µM.
Procedure, shortened: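 Relative viability is defined as nuclei in treated wells over nuclei in vehicle wells. Duplicate plates were run and medians reported. Lung cancer cell lines in 1536-well plates were dosed by pin tool one day after seeding, with one drug or with a fixed anchor-drug dose plus five library-drug doses (not always all listed) in √10 steps, and nuclei were counted after 5 days.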

First: NCI-H1666
Second: LK-2
The relative viability of the first is higher: 0.784 for the first, 0.225 for the second.

Going from NCI-H2087 to SK-MES-1, the relative viability rises from 0.427 to 0.611.

First: H3255
Second: COR-L23
The relative viability of the first is lower: 0.608 for the first, 0.788 for the second.

First: COR-L 105
Second: LOU-NH91
The relative viability of the first is higher: 0.768 for the first, 0.717 for the second.

Going from ChaGo-K-1 to NCI-H2170, the relative viability rises from 0.637 to 0.686.

Compared with HOP-62, HCC-44 is lower in relative viability: 0.843 for the first, 0.552 for the second.

Compared with NCI-H522, LU99A is lower in relative viability: 0.741 for the first, 0.287 for the second.

Compared with BEN, HARA is higher in relative viability: 0.281 for the first, 0.439 for the second.

Compared with SW 900, HCC-78 is lower in relative viability: 0.65 for the first, 0.343 for the second.

Compared with NCI-H322M, LCLC-97TM1 is higher in relative viability: 0.471 for the first, 0.519 for the second.

Going from NCI-H2009 to A-427, the relative viability falls from 0.646 to 0.4.

Going from NCI-H441 to NCI-H661, the relative viability rises from 0.557 to 0.73.

Compared with NCI-H1734, NCI-H460 is lower in relative viability: 0.659 for the first, 0.616 for the second.

Compared with NCI-H2347, SK-LU-1 is lower in relative viability: 0.411 for the first, 0.35 for the second.

First: NCI-H1395
Second: 201T
The relative viability of the first is lower: 0.576 for the first, 0.683 for the second.

First: NCI-H1915
Second: HCC-827
The relative viability of the first is lower: 0.575 for the first, 0.669 for the second.

LXF-289 gave a relative viability of 0.708.

Same assay, conditions: first compound 0.03162 µM

First: NCI-H1666
Second: LK-2
The relative viability of the first is higher: 0.816 for the first, 0.195 for the second.

Going from NCI-H2087 to SK-MES-1, the relative viability rises from 0.544 to 0.59.

Going from H3255 to COR-L23, the relative viability rises from 0.601 to 0.721.

Going from COR-L 105 to LOU-NH91, the relative viability rises from 0.7 to 0.764.

Compared with ChaGo-K-1, NCI-H2170 is higher in relative viability: 0.474 for the first, 0.687 for the second.

Going from NCI-H2405 to HOP-62, the relative viability rises from 0.59 to 0.912.

First: HCC-44
Second: NCI-H522
The relative viability of the first is lower: 0.431 for the first, 0.585 for the second.

Going from LU99A to BEN, the relative viability rises from 0.261 to 0.277.

First: HARA
Second: SW 900
The relative viability of the first is higher: 0.724 for the first, 0.515 for the second.

Compared with HCC-78, NCI-H322M is higher in relative viability: 0.348 for the first, 0.584 for the second.

Compared with LCLC-97TM1, NCI-H2009 is higher in relative viability: 0.56 for the first, 0.689 for the second.

First: A-427
Second: NCI-H441
The relative viability of the first is lower: 0.459 for the first, 0.619 for the second.

Compared with NCI-H661, NCI-H1734 is lower in relative viability: 0.741 for the first, 0.602 for the second.

First: NCI-H460
Second: NCI-H2347
The relative viability of the first is higher: 0.633 for the first, 0.364 for the second.

First: SK-LU-1
Second: NCI-H1395
The relative viability of the first is lower: 0.36 for the first, 0.579 for the second.

Compared with 201T, NCI-H1915 is lower in relative viability: 0.726 for the first, 0.72 for the second.

Compared with HCC-827, LXF-289 is higher in relative viability: 0.809 for the first, 0.841 for the second.

Same assay, conditions: first compound 0.1 µM

First: NCI-H1666
Second: LK-2
The relative viability of the first is higher: 0.894 for the first, 0.168 for the second.

Compared with NCI-H2087, SK-MES-1 is higher in relative viability: 0.585 for the first, 0.661 for the second.

First: H3255
Second: COR-L23
The relative viability of the first is lower: 0.603 for the first, 0.874 for the second.

Going from COR-L 105 to LOU-NH91, the relative viability rises from 0.717 to 0.721.

First: ChaGo-K-1
Second: NCI-H2170
The relative viability of the first is lower: 0.495 for the first, 0.748 for the second.

Going from NCI-H2405 to HOP-62, the relative viability rises from 0.683 to 0.839.

First: HCC-44
Second: NCI-H522
The relative viability of the first is higher: 0.633 for the first, 0.417 for the second.

Going from LU99A to BEN, the relative viability falls from 0.301 to 0.272.

Compared with HARA, SW 900 is higher in relative viability: 0.527 for the first, 0.651 for the second.

Compared with HCC-78, NCI-H322M is higher in relative viability: 0.405 for the first, 0.506 for the second.

Compared with LCLC-97TM1, NCI-H2009 is higher in relative viability: 0.465 for the first, 0.713 for the second.

Going from A-427 to NCI-H441, the relative viability rises from 0.485 to 0.608.

First: NCI-H661
Second: NCI-H460
The relative viability of the first is higher: 0.848 for the first, 0.619 for the second.

Going from NCI-H2347 to SK-LU-1, the relative viability rises from 0.357 to 0.401.

First: NCI-H1395
Second: 201T
The relative viability of the first is lower: 0.658 for the first, 0.779 for the second.

First: NCI-H1915
Second: HCC-827
The relative viability of the first is lower: 0.625 for the first, 0.749 for the second.

Work on LXF-289 yielded a relative viability of 0.857.

Same assay, conditions: first compound 0.3162 µM

Going from NCI-H1666 to LK-2, the relative viability falls from 0.937 to 0.218.

First: NCI-H2087
Second: SK-MES-1
The relative viability of the first is higher: 0.705 for the first, 0.648 for the second.

Compared with H3255, COR-L23 is higher in relative viability: 0.558 for the first, 0.753 for the second.

Going from COR-L 105 to LOU-NH91, the relative viability rises from 0.689 to 0.722.

Compared with ChaGo-K-1, NCI-H2170 is higher in relative viability: 0.597 for the first, 0.718 for the second.

Going from NCI-H2405 to HOP-62, the relative viability rises from 0.663 to 0.92.

Compared with HCC-44, NCI-H522 is higher in relative viability: 0.633 for the first, 0.659 for the second.

Going from LU99A to BEN, the relative viability falls from 0.307 to 0.291.

Going from HARA to SW 900, the relative viability rises from 0.554 to 0.61.

Compared with HCC-78, NCI-H322M is higher in relative viability: 0.345 for the first, 0.584 for the second.

First: LCLC-97TM1
Second: NCI-H2009
The relative viability of the first is lower: 0.58 for the first, 0.593 for the second.

Compared with A-427, NCI-H441 is higher in relative viability: 0.545 for the first, 0.577 for the second.

Going from NCI-H661 to NCI-H1734, the relative viability falls from 0.749 to 0.58.

Going from NCI-H460 to NCI-H2347, the relative viability falls from 0.635 to 0.51.

Compared with SK-LU-1, NCI-H1395 is higher in relative viability: 0.41 for the first, 0.636 for the second.

First: 201T
Second: NCI-H1915
The relative viability of the first is lower: 0.506 for the first, 0.631 for the second.

First: HCC-827
Second: LXF-289
The relative viability of the first is lower: 0.761 for the first, 0.912 for the second.

Same assay, conditions: first compound 1 µM

First: NCI-H1666
Second: LK-2
The relative viability of the first is higher: 0.859 for the first, 0.256 for the second.

Going from NCI-H2087 to SK-MES-1, the relative viability falls from 0.573 to 0.564.

First: H3255
Second: COR-L23
The relative viability of the first is lower: 0.635 for the first, 0.806 for the second.

Going from COR-L 105 to LOU-NH91, the relative viability rises from 0.626 to 0.743.

Compared with ChaGo-K-1, NCI-H2170 is higher in relative viability: 0.563 for the first, 0.775 for the second.

Going from NCI-H2405 to HOP-62, the relative viability rises from 0.719 to 0.815.

First: HCC-44
Second: NCI-H522
The relative viability of the first is lower: 0.544 for the first, 0.732 for the second.

First: LU99A
Second: BEN
The relative viability of the first is higher: 0.322 for the first, 0.31 for the second.

First: HARA
Second: SW 900
The relative viability of the first is lower: 0.557 for the first, 0.656 for the second.

Compared with HCC-78, NCI-H322M is higher in relative viability: 0.297 for the first, 0.566 for the second.

First: LCLC-97TM1
Second: NCI-H2009
The relative viability of the first is lower: 0.537 for the first, 0.623 for the second.

First: A-427
Second: NCI-H441
The relative viability of the first is lower: 0.5 for the first, 0.547 for the second.

NCI-H661 was tested, and the relative viability was 0.576.

— the supplement of paper PMC10307832
